The record followed here is ChEMBL document CHEMBL3045643, “Synthesis, crystal structure, and anticancer properties of cyclic monocarbonyl analogs of curcumin” (Med Chem Res, 2011).

The structures appear in SMILES notation. Calls of active or inactive are those of the source. The calls are words filed in the database; no cut-off is given here.

Series [1] has as its system HCT-116. The experiment in a line: Cytotoxicity against Homo sapiens (human) HCT116 cells at 0.01 to 30 uM by CCK8-based colorimetric analysis. The class given is functional, cell-based.
Series [2] can be described thus: Cytotoxicity against Homo sapiens (human) […] cells at 0.01 to 30 uM by CCK8-based colorimetric analysis. The class given is cell-based. The conditions noted are these: wi-38, 30 µM.
Series [3] has as its system Calu-1. The experiment in a line: Cytotoxicity against Homo sapiens (human) Calu1 cells at 0.01 to 30 uM by CCK8-based colorimetric analysis. Type of series: functional, cell-based.
A further series relates to NCI-H460. Briefly: Cytotoxicity against Homo sapiens (human) H460 cells at 0.01 to 30 uM by CCK8-based colorimetric analysis. The class given is functional, cell-based.
Series [4] has as its system ACHN. Briefly: Cytotoxicity against Homo sapiens (human) ACHN cells at 0.01 to 30 uM by CCK8-based colorimetric analysis. Type of series: functional, cell-based.
In series [5] the test system is PANC-1. Briefly: Cytotoxicity against Homo sapiens (human) PANC1 cells at 0.01 to 30 uM by CCK8-based colorimetric analysis. Type of series: functional, cell-based.
Series [6] can be described thus: Cytotoxicity against Homo sapiens (human) H460 cells by CCK8-based colorimetric analysis. Type of series: functional, cell-based. The conditions noted are these: NCI-H460.
In series [7] the test system is PANC-1. The experiment in a line: Cytotoxicity against Homo sapiens (human) PANC1 cells by CCK8-based colorimetric analysis. Type of series: functional, cell-based.
The test system of series [8] is HCT-116. Briefly: Cytotoxicity against Homo sapiens (human) HCT116 cells by CCK8-based colorimetric analysis. Type of series: functional, cell-based.
Series [9] deals with ACHN. The experiment in a line: Cytotoxicity against Homo sapiens (human) ACHN cells by CCK8-based colorimetric analysis. Type of series: functional, cell-based.
For series [10], the system named is Calu-1. The experiment in a line: Cytotoxicity against Homo sapiens (human) Calu1 cells by CCK8-based colorimetric analysis. The class given is functional, cell-based.

Take `COc1ccc(/C=C2\CN(Cc3ccccc3)C/C(=C\c3ccc(OC)cc3)C2=O)cc1`: the result in the series with HCT-116 [1], with Calu-1 [3], in the series with NCI-H460, with ACHN [4] and in the series on PANC-1 [5] was Active. For the same molecule, the Activity entry in series [2] was “Non-toxic”.
Regarding `COc1ccccc1/C=C1\C(=O)/C(=C\c2ccccc2OC)c2ccccc21`, the outcome in the series on HCT-116 [1], in the series on Calu-1 [3], in the series with NCI-H460, in the series on ACHN [4] and in the series with PANC-1 [5] was Active. Besides, in series [2], the Activity result is given as “Non-toxic”.
For the molecule `O=C1/C(=C/c2ccccc2)CN(Cc2ccccc2)C/C1=C\c1ccccc1`, the outcome in the series on HCT-116 [1], in the series with Calu-1 [3], with NCI-H460, in the series on ACHN [4] and with PANC-1 [5] was Active. Besides, in series [2], the Activity entry was “Non-toxic”.
Consider `CCOc1ccc(/C=C2\CN(Cc3ccccc3)C/C(=C\c3ccc(OCC)cc3)C2=O)cc1`, for which the IC50 in series [6] amounted to 5.5 µM; in the series on PANC-1 [7] it was 7.2 µM; in the series with HCT-116 [8], 8.3 µM; in the series on ACHN [9], 6.9 µM; in the series with Calu-1 [10] it was 8.1 µM. In [2], the Activity result is on record as “Non-toxic”.
As to `O=C1/C(=C/c2cccc(O)c2)CN(Cc2ccccc2)C/C1=C\c1cccc(O)c1`, the result in the series with HCT-116 [1], in the series on Calu-1 [3], with NCI-H460, in the series on ACHN [4] and with PANC-1 [5] was Active. The Activity entry in series [2] is recorded as “Non-toxic”.
